Values of other authors in US20230143212A1 (Navinta, LLC, priority 2021, published 2023).
Several values for one entry are separate records, joined by “and”; a condition that tells them apart may be missing. Equal entries are not always repeated. Where two headings read alike, the source gives them in different places.

Columns and labels:
[1] = for solubility in propylene glycol/water: 25° C.
[2] = ethyl alcohol, DMSO, propylene glycol, polyethylene glycol, glycerol, dimethylformamide
[3] = rabbits; composition in polyethylene glycol-300 with and without bile salt
[4] = orally administered

solubility in propylene glycol/water ([1]; 60% v/v propylene glycol): about 250 mM and 60 mg/ml
solubility in propylene glycol/water ([1]; until reaching 40% v/v propylene glycol): up to 50 mM and ~ 12 mg/ml
pH dependence of solubility in water ([1]; water): pH-independent solubility
solubility in organic solvents [2]: soluble
bioavailability via intranasal route [3]: increased substantially
Plasma T½ [4]: ~ 50 minutes
oral absorption [4]: almost completely absorbed
oral bioavailability [4]: ~ 15%
Structure (SMILES): COc1ccc2[nH]cc(CCNC(C)=O)c2c1 [Melatonin, N-[2-(5-Methoxy-1H-indol-3-yl)ethyl] acetamide]
